≈ marks a conversion by molar mass, not a printed value. Blank lines part the entries; values can stand above or below the molecule they belong to.
Tests used:
[1] = tested on: Staphylococcus aureus; test: Antibacterial activity against Staphylococcus aureus ATCC 29213 by broth microdilution method; type: functional
[2] = Plasma protein binding in human at […] incubated for 2 hrs by UPLC analysis; type: ADME, cell-free; settings: read-out: PPB (converted)
[3] = tested on: HepG2; test: Cytotoxicity against human HepG2 cells assessed as reduction in cell viability by XTT assay; type: cell-based
[4] = Hemolytic activity in human RBC relative to control; type: ADME, cell-based, Erythrocyte; settings: red blood cells (erythrocytes), read-out: Activity
[5] = tested on: Staphylococcus aureus; test: Antibacterial activity against Staphylococcus aureus ATCC 27660 by broth microdilution method; type: functional
[6] = tested on: Staphylococcus aureus; test: Antibacterial activity against Staphylococcus aureus N315 (NRS70) by broth microdilution method; type: functional
[7] = tested on: Staphylococcus aureus; test: Antibacterial activity against Staphylococcus aureus NRS100 (COL) by broth microdilution method; type: functional
[8] = tested on: Staphylococcus aureus; test: Antibacterial activity against Staphylococcus aureus NRS119 by broth microdilution method; type: functional
[9] = tested on: Staphylococcus aureus; test: Antibacterial activity against Staphylococcus aureus NRS120 by broth microdilution method; type: functional
[10] = tested on: Staphylococcus aureus; test: Antibacterial activity against vancomycin-resistant Staphylococcus aureus VRS1 clinical isolate by broth microdilution method; type: functional
[11] = tested on: Staphylococcus aureus; test: Antibacterial activity against vancomycin-resistant Staphylococcus aureus VRS2 clinical isolate by broth microdilution method; type: functional
[12] = tested on: Staphylococcus epidermidis; test: Antibacterial activity against Staphylococcus epidermidis ATCC 35547 by broth microdilution method; type: functional
[13] = tested on: Staphylococcus haemolyticus; test: Antibacterial activity against Staphylococcus haemolyticus ATCC 29970 by broth microdilution method; type: functional
[14] = tested on: Bacillus cereus; test: Antibacterial activity against Bacillus cereus ATCC 13061 by broth microdilution method; type: functional
[15] = tested on: Bacillus licheniformis; test: Antibacterial activity against Bacillus licheniformis ATCC 12759 by broth microdilution method; type: functional
[16] = tested on: Enterococcus faecium; test: Antibacterial activity against vancomycin-susceptible Enterococcus faecium 119-39A clinical isolate by broth microdilution method; type: functional
[17] = tested on: Enterococcus faecium; test: Antibacterial activity against vancomycin-resistant Enterococcus faecium 106 clinical isolate by broth microdilution method; type: functional
[18] = tested on: Enterococcus faecium; test: Antibacterial activity against Enterococcus faecium NCTC 7171 by broth microdilution method; type: functional
[19] = tested on: Enterococcus faecalis; test: Antibacterial activity against Enterococcus faecalis ATCC 29212 by broth microdilution method; type: functional
[20] = tested on: Enterococcus faecalis; test: Antibacterial activity against vancomycin-susceptible Enterococcus faecalis 201 clinical isolate by broth microdilution method; type: functional
[21] = tested on: Enterococcus faecalis; test: Antibacterial activity against vancomycin-resistant Enterococcus faecalis 99 clinical isolate by broth microdilution method; type: functional
[22] = Drug level in mouse thigh infected with linezolid-sensitive Staphylococcus aureus NRS70 at 40 mg/kg, po administered 1 hrs post infection and measured for 48 hrs; type: ADME, organism-based; settings: read-out: Drug uptake
[23] = Drug level in mouse thigh infected with linezolid-resistant Staphylococcus aureus NRS119 at 40 mg/kg, po administered 1 hrs post infection and measured for 48 hrs; type: ADME, organism-based; settings: read-out: Drug uptake

Compound: Oc1ccc(-c2noc(-c3ccc(O)cc3)n2)cc1
MIC [1]: ≥ 128 µg/mL

Compound: NC(=O)c1ccccc1Oc1ccc(-c2noc(-c3ccc(O)cc3)n2)cc1
MIC [1]: ≥ 128 µg/mL

Compound: Oc1ccc(-c2nc(-c3ccc(Oc4ccc(I)cc4)cc3)no2)cc1
MIC [1]: 4 µg/mL (≈ 8.77 µM)

Compound: Oc1ccc(-c2nc(-c3ccc(OC4CN5CCC4CC5)cc3)no2)cc1 (configuration not stated)
MIC [1]: 64 µg/mL (≈ 176 µM)

Compound: COc1ccc2oc3ccc(-c4noc(-c5ccc(O)cc5)n4)cc3c2c1
MIC [1]: ≥ 128 µg/mL

Compound: Oc1ccc(-c2nc(-c3ccc(Oc4cccc(CBr)c4)cc3)no2)cc1
MIC [1]: 4 µg/mL (≈ 9.45 µM)

Compound: CN1[C@@H]2CC[C@@H]1CC(Oc1ccc(-c3noc(-c4ccc(O)cc4)n3)cc1)C2 (some centres not stated)
MIC [1]: 32 µg/mL (≈ 84.8 µM)

Compound: CN(C)C(=O)CCOc1ccc(-c2noc(-c3ccc(O)cc3)n2)cc1
MIC [1]: ≥ 128 µg/mL

Compound: CN(C)C(=O)Oc1ccc(-c2noc(-c3ccc(O)cc3)n2)cc1
MIC [1]: ≥ 128 µg/mL

Compound: Oc1ccc(-c2nc(-c3ccc4oc5ccc(C(F)(F)F)cc5c4c3)no2)cc1
MIC [1]: ≥ 128 µg/mL

Compound: CC(=O)NC[C@H]1CN(c2ccc(N3CCOCC3)c(F)c2)C(=O)O1 [LINEZOLID]
MIC [5]: 1 µg/mL (≈ 2.96 µM)
MIC [6]: 1 µg/mL (≈ 2.96 µM)
MIC [7]: 1 µg/mL (≈ 2.96 µM)
MIC [8]: 32 µg/mL (≈ 94.9 µM)
MIC [9]: 32 µg/mL (≈ 94.9 µM)
MIC [10]: 1 µg/mL (≈ 2.96 µM)
MIC [11]: 1 µg/mL (≈ 2.96 µM)
MIC [12]: 0.5 µg/mL (≈ 1.48 µM)
MIC [13]: 1 µg/mL (≈ 2.96 µM)
MIC [14]: 0.5 µg/mL (≈ 1.48 µM)
MIC [15]: 0.5 µg/mL (≈ 1.48 µM)
MIC [16]: 1 µg/mL (≈ 2.96 µM)
MIC [17]: 1 µg/mL (≈ 2.96 µM)
MIC [18]: 1 µg/mL (≈ 2.96 µM)

Compound: Oc1ccc(-c2nc(-c3ccc(OC4CCNCC4)cc3)no2)cc1
MIC [1]: 16 µg/mL (≈ 47.4 µM)

Compound: CN[C@H](CC(C)C)C(=O)N[C@H]1C(=O)N[C@@H](CC(N)=O)C(=O)N[C@H]2C(=O)N[C@H]3C(=O)N[C@H](C(=O)N[C@H](C(=O)O)c4cc(O)cc(O)c4-c4cc3ccc4O)[C@H](O)c3ccc(c(Cl)c3)Oc3cc2cc(c3O[C@@H]2O[C@H](CO)[C@@H](O)[C@H](O)[C@H]2O[C@H]2C[C@](C)(N)[C@H](O)[C@H](C)O2)Oc2ccc(cc2Cl)[C@H]1O [VANCOMYCIN]
MIC [10]: 64 µg/mL (≈ 44.2 µM)
MIC [11]: 32 µg/mL (≈ 22.1 µM)
MIC [13]: 4 µg/mL (≈ 2.76 µM)
MIC [19]: 2 µg/mL (≈ 1.38 µM)
MIC [20]: 1 µg/mL (≈ 0.69 µM)

Compound: Oc1ccc(-c2nc(-c3ccc4c(c3)Oc3ccccc3O4)no2)cc1
MIC [1]: ≥ 128 µg/mL

Compound: FC(F)(F)c1ccc(Oc2ccc(-c3noc(-c4ccc5[nH]ccc5c4)n3)cc2)cc1
MIC [1]: 2 to 4 µg/mL (≈ 4.75 to 9.49 µM)
MIC [5]: 4 µg/mL (≈ 9.49 µM)
MIC [6]: 2 µg/mL (≈ 4.75 µM)
MIC [7]: 2 µg/mL (≈ 4.75 µM)
MIC [8]: 2 µg/mL (≈ 4.75 µM)
MIC [9]: 2 µg/mL (≈ 4.75 µM)
MIC [10]: 2 µg/mL (≈ 4.75 µM)
MIC [11]: 2 µg/mL (≈ 4.75 µM)
MIC [12]: 2 µg/mL (≈ 4.75 µM)
MIC [13]: 4 to 8 µg/mL (≈ 9.49 to 19 µM)
MIC [14]: 16 µg/mL (≈ 38 µM)
MIC [15]: 8 µg/mL (≈ 19 µM)
MIC [19]: 8 µg/mL (≈ 19 µM)
MIC [20]: 4 µg/mL (≈ 9.49 µM)
MIC [21]: 4 µg/mL (≈ 9.49 µM)
MIC [16]: 1 µg/mL (≈ 2.37 µM)
MIC [17]: 2 µg/mL (≈ 4.75 µM)
MIC [18]: 2 µg/mL (≈ 4.75 µM)
concentration at 48 h [22]: 7600 ng/g
concentration at 48 h [23]: 6000 ng/g

Compound: Oc1ccc(-c2nc(-c3ccc(Oc4ccc(CBr)cc4)cc3)no2)cc1
MIC [1]: ≥ 128 µg/mL

Compound: Cl.Clc1c[nH]nc1-c1nc(-c2ccc(OC3CCCNC3)cc2)no1 (configuration not stated)
MIC [1]: ≥ 128 µg/mL

Compound: Clc1c[nH]nc1-c1nc(-c2ccc(OC3CCNCC3)cc2)no1
MIC [1]: ≥ 128 µg/mL

Compound: Oc1ccc(-c2nc(-c3ccc(Oc4ccccc4I)cc3)no2)cc1
MIC [1]: 2 µg/mL (≈ 4.38 µM)

Continued, in another order:

MIC [1]: 64 µg/mL (≈ 190 µM)
Compound: Oc1ccc(-c2nc(-c3ccc(OC4CCCNC4)cc3)no2)cc1 (configuration not stated)

MIC [1]: ≥ 128 µg/mL
Compound: CC(=O)N1CCC(Oc2ccc(-c3noc(-c4ccc(O)cc4)n3)cc2)CC1

MIC [1]: 16 µg/mL
Compound: Cl.Oc1ccc(-c2nc(-c3ccc(OC4CCNC4)cc3)no2)cc1 (configuration not stated)

MIC [1]: 2 µg/mL (≈ 5.39 µM)
Compound: [N-]=[N+]=Nc1ccccc1Oc1ccc(-c2noc(-c3ccc(O)cc3)n2)cc1

MIC [1]: ≥ 128 µg/mL
Compound: OCc1ccccc1Oc1ccc(-c2noc(-c3ccc(O)cc3)n2)cc1

MIC [1]: ≥ 128 µg/mL
Compound: Oc1ccc(-c2nc(-c3ccc(OC4CCOC4)cc3)no2)cc1 (configuration not stated)

MIC [1]: 2 µg/mL (≈ 5.11 µM)
fraction unbound at 2 h [2]: 0.088
Compound: Fc1ccc(Oc2ccc(-c3noc(-c4n[nH]cc4Cl)n3)cc2)cc1Cl
IC50 [3]: 21 µg/mL (≈ 53.7 µM)
hemolysis [4]: 2.9%

MIC [1]: ≥ 128 µg/mL
Compound: CC(=O)c1ccc(Oc2ccc(-c3noc(-c4n[nH]cc4Cl)n3)cc2)cc1

MIC [1]: 64 µg/mL (≈ 171 µM)
Compound: O=C(O)c1ccc(Oc2ccc(-c3noc(-c4ccc(O)cc4)n3)cc2)cc1

MIC [1]: ≥ 128 µg/mL
Compound: Nc1ccccc1Oc1ccc(-c2noc(-c3ccc(O)cc3)n2)cc1

MIC [1]: 4 µg/mL (≈ 9.38 µM)
Compound: O=C(c1cccc(Oc2ccc(-c3noc(-c4ccc(O)cc4)n3)cc2)c1)C(F)(F)F

MIC [1]: ≥ 128 µg/mL
Compound: COc1ccc(-c2noc(-c3n[nH]cc3Cl)n2)cc1

MIC [1]: ≥ 128 µg/mL
Compound: FC(F)(F)Oc1ccc(-c2noc(-c3ccc4[nH]ccc4c3)n2)cc1

MIC [1]: 2 µg/mL (≈ 4.83 µM)
fraction unbound at 2 h [2]: 0.002
Compound: Oc1ccc(-c2nc(-c3ccc(Oc4ccc(OC(F)(F)F)cc4)cc3)no2)cc1
IC50 [3]: 16.9 µg/mL (≈ 40.8 µM)
hemolysis [4]: 2.1%

MIC [1]: 16 µg/mL
Compound: Cl.NCCCOc1ccc(-c2noc(-c3ccc(O)cc3)n2)cc1

MIC [1]: > 128 µg/mL
Compound: O=C(O)c1ccccc1Oc1ccc(-c2noc(-c3ccc(O)cc3)n2)cc1

MIC [1]: 1 µg/mL (≈ 2.15 µM)
fraction unbound at 2 h [2]: 0.095
Compound: Clc1c[nH]nc1-c1nc(-c2ccc(Oc3ccc(I)cc3)cc2)no1
IC50 [3]: 30.7 µg/mL (≈ 66.1 µM)
hemolysis [4]: 3.1%

MIC [1]: 4 µg/mL (≈ 9.77 µM)
Compound: Oc1ccc(-c2nc(-c3ccc(Oc4cccc(Br)c4)cc3)no2)cc1

Source: ChEMBL document CHEMBL4342484, “Structure-Activity Relationship for the Oxadiazole Class of Antibacterials” (ACS Med Chem Lett, 2020)
